Measurements as given in the NIST ThermoML archive (doi:10.1016/j.jct.2017.07.013).

Assay: xn = mol fraction of the nth substance listed
Conditions: 101.3 kPa, Liquid; for speed of sound: Frequency=3 MHz, Single path-length method; for mass density: Vibrating tube method

CCCC[n+]1ccn(C)c1.O=S(=O)([N-]S(=O)(=O)C(F)(F)F)C(F)(F)F + COC(=O)OC
Conditions | mass density, 303.15 K [kg/m3] | mass density, 308.15 K [kg/m3] | mass density, 313.15 K [kg/m3] | mass density, 318.15 K [kg/m3] | mass density, 323.15 K [kg/m3] | speed of sound, 303.15 K [m/s] | speed of sound, 308.15 K [m/s] | speed of sound, 313.15 K [m/s] | speed of sound, 318.15 K [m/s] | speed of sound, 323.15 K [m/s]
x1 = 0.0512 | 1120.1 | 1113.8 | 1107.5 | 1101.2 | 1094.9 | 1187 | 1167.2 | 1147.5 | 1127.6 | 1108.3
x1 = 0.101 | 1168.9 | 1163 | 1157 | 1151 | 1145 | 1196.1 | 1177.7 | 1159.4 | 1141 | 1123
x1 = 0.1495 | 1207.1 | 1201.3 | 1195.5 | 1189.8 | 1184 | 1203.7 | 1186.5 | 1169.4 | 1152.4 | 1135.6
x1 = 0.1945 | 1236.1 | 1230.5 | 1224.9 | 1219.3 | 1213.7 | 1209.2 | 1192.9 | 1176.8 | 1160.8 | 1144.9
x1 = 0.2994 | 1288.3 | 1282.9 | 1277.6 | 1272.2 | 1266.9 | 1215.4 | 1200.7 | 1186.2 | 1171.7 | 1157.4
x1 = 0.3999 | 1324.3 | 1319.1 | 1313.9 | 1308.8 | 1303.6 | 1217.4 | 1203.8 | 1190.3 | 1176.9 | 1163.6
x1 = 0.4976 | 1351.4 | 1346.3 | 1341.2 | 1336.2 | 1331.1 | 1217.7 | 1204.9 | 1192.1 | 1179.5 | 1166.9
x1 = 0.5842 | 1370.7 | 1365.6 | 1360.7 | 1355.7 | 1350.7 | 1217.4 | 1205 | 1192.8 | 1180.6 | 1168.6
x1 = 0.6886 | 1389.7 | 1384.8 | 1379.8 | 1374.9 | 1370.1 | 1217.4 | 1205.5 | 1193.7 | 1182.1 | 1170.5
x1 = 0.7475 | 1399 | 1394.1 | 1389.2 | 1384.3 | 1379.5 | 1217.2 | 1205.6 | 1194 | 1182.6 | 1171.3
x1 = 0.8014 | 1406.6 | 1401.8 | 1396.9 | 1392.1 | 1387.3 | 1217 | 1205.6 | 1194.2 | 1183 | 1171.8
x1 = 0.889 | 1417.4 | 1412.6 | 1407.8 | 1403 | 1398.2 | 1216.8 | 1205.6 | 1194.5 | 1183.6 | 1172.7
x1 = 0.9526 | 1424.2 | 1419.4 | 1414.6 | 1409.9 | 1405.1 | 1216.8 | 1205.7 | 1194.8 | 1184 | 1173.3
x1 = 1 | 1428.9 | 1424.1 | 1419.4 | 1414.6 | 1409.9 | 1216.8 | 1205.8 | 1195 | 1184.2 | 1173.6
